Columns and labels:
[1] = in vivo blood pressure (mean arterial pressure) monitoring in anesthetized rats; set-up: species or system rat
Experimental: (§1) Materials: Male Sprague-Dawley rats (250-300 g) were purchased from the Animal Care Facility of the Hebrew University and used in the rat aortic rings (RARs) relaxation studies in vitro and the blood pressure monitoring and cGMP studies in vivo.
In the in vivo experiment, rats were anesthetized with an intraperitoneal injection of a combination of ketamine and xylazine (50 and 10 mg per kg, respectively). A catheter was placed in the right external jugular vein and introduced to the level of right atrium. A second arterial catheter was placed in the left carotid artery and introduced to the level of the ascending aorta. The tip of arterial catheter was connected to a pressure transducer which is connected to another electrical transducer connected to a computerized Experimetria system. Blood-pressure (mean arterial pressure=MAP) was recorded before (basal) and after drug administration. NO-TEMPO was injected through the venous catheter and induced a significant drop in MAP which lasts for 5 to 10 minutes. Values for basal MAP were 130±15 before and 60±10 mm Hg following a 1 mg injection of NO-TEMPO.

rat aortic rings (RARs) [2] = test: in vitro induction of tolerance in rat aortic rings; type: cell-based; details: for tolerance induction in vitro: RARs pre-exposed to 0.44 mM of the drug for 1 hr; for vaso-relaxant effect on rings before and after exposure to GTN: rings exposed to 0.44 mM GTN for 1 hr, FIGS. 4 and 5; for vaso-relaxant potency, control versus NO-TEMPO-pre-treated RARs: rings exposed to 0.44 mM NO-TEMPO, FIGS. 7 and 8
Experimental: as §1
In vitro induction of GTN tolerance: Aortic rings were treated as for the control studies except that rings were exposed to 0.44 mM GTN for 1 hr. At the end of the tolerance induction period, rings were washed every 15 min for the following hour. Attempted induction of tolerance to NO-TEMPO was performed under the same conditions as for GTN with rings exposed to 0.44 mM solution of NO-TEMPO. CCRC were constructed for NO-TEMPO and GTN. […] This conclusion is further supported by separately evaluating the vaso-relaxant effect of each drug on control and NO-TEMPO-pre-treated RARs.

[3] = in vivo induction of tolerance, subcutaneous dosing; set-up: species or system rat; details: subcutaneously 30 mg/kg t.i.d for three consecutive days
[4] = superoxide scavenging activity in vitro (photometric microassay, xanthine oxidase/hypoxanthine, ferricytochrome c reduction); type: biochemical; details: inhibition of ferricytochrome c reduction; 0.003-3 mM tested; n=5
Experimental: Assessment of superoxide scavenging activity in vitro
The superoxide scavenging activity of TEMPO-4-mononitrate (0.003-3 mM) and reference compound superoxide dismutase (SOD, 200 U/ml), were determined using a photometric microassay in vitro (Laight et al., Environ. J. Toxicol. Pharmracol., 3, 65-68, 1997) developed from the assay of McCord & Fridovich (J. Biol. Chem., 244, 6059-55, 1969). The assay mixture consisted of (final concentration): 50 μl ferricytochrome c (100 μM); 10 μl xanthine oxidase (20 mU/ml); 20 μl hypoxanthine (100 μM); and 20 μl sample dissolved in isotonic phosphate (10 mM)-buffered saline (PBS, pH 7.4) to make a total volume of 100 μl in a 96-well plate. The reaction was conducted at room temperature and initiated by the addition of hypoxanthine. The increase in optical density (OD) at […] was measured over a 3 min period of 30 s intervals and initial reaction rates determined at least in triplicate.
There was a linear relationship between the initial reaction rate and the concentration of xanthine oxidase (5-20 mU/ml) (r=0.9982, P<0.002, n=4). […] Xanthine oxidase at 20 mU/rml, which provided an initial reaction rate of 28.3±1.7 mOD/min (n=4), was adopted for subsequent inhibition studies (see McCord & Fridovich, 1969). The initial reaction rate was depressed by SOD (200 U/ml) by 95.3±1.1% (n=4, P<0.01) and by TEMPO-4-mononitrate (see FIG. 1).

rat aortic rings (RARs) [5] = test: in vitro vasorelaxation of epinephrine-contracted rat aortic rings; type: cell-based; details: control RARs contracted with epinephrine 1 μM; FIGS. 2 and 3
Experimental: as §1
In vitro vasorelaxation: Thoracic aortae were removed following anesthesia with intraperitoneal injection of ketamine and xylazine (50 and 10 mg/kg, respectively). The paraadventetial tissue surrounding the vessel was carefully removed. Aortae were cut into rings of 4-5 mm and mounted onto the tissue path. The path buffer (Krebs-bicarbonate) was constantly gassed with carbogen and maintained at 37° C. The rings were preloaded under 2 g tension and equilibrated for 90 min with buffer changed every 15 min. After stabilization, the rings were contracted with epinephrine (1 μM). Commulative Concentration-Response Curves (CCRC) were constructed for NO-TEMPO, glyceryl trinitrate (GTN) and S-nitroso-N-acetylpenicillamine (SNAP). FIGS. 2 and 3 represent the vaso-relaxant effect of NO-TEMPO as compared to the conventional NO-donors GTN and SNAP.

[6] = test system: cGMP content in aortic tissue; test: vascular cGMP content after in vivo administration (RIA); set-up: species or system rat; details: for effect on vascular cGMP compared to GTN: intravenously in equimolar doses
Experimental: as §1
Experiments were performed in anaesthetized rats as above. Following i.v. administration of NO-TEMPO (0.1, 0.2, 0.5 mg etc.,) the thorax was opened and the aorta removed immediately (within thirty seconds from the administration). After standard processing procedures, cGMP content in the vascular tissue was measured by Radioimmunoassay (RIA) using commercially available kits (i.e., Kit 500 TRK from Amersham).

CC(=O)N[C@H](C(=O)O)C(C)(C)SN=O (racemic) [SNAP, S-nitroso-N-acetylpenicillamine, reference compound]
tolerance of the hypotensive effect on MAP following successive administration [1]: attenuation to their effect on MAP develops

O=[N+]([O-])OCC(CO[N+](=O)[O-])O[N+](=O)[O-] [GTN, glyceryl trinitrate, reference compound]
tolerance induction in vitro (rat aortic rings (RARs) [2]): induces tolerance both to itself and to NO-TEMPO
vaso-relaxant effect on rings before and after exposure to GTN (rat aortic rings (RARs) [2]): development of GTN tolerance
vaso-relaxant potency, control versus NO-TEMPO-pre-treated RARs (rat aortic rings (RARs) [2]): no significant difference
tolerance of the hypotensive effect on MAP following successive administration [1]: attenuation to their effect on MAP develops
tolerance induction in vivo [3]: does induce tolerance to itself and to NO-TEMPO

CC1(C)CC(O[N+](=O)[O-])CC(C)(C)N1[O] [TEMPO-4-mononitrate, 4-Nitrato-2,2,6,6-tetramethylpiperidinyloxy, free radical]
pIC50 value [4]: 2.89±0.03
vaso-relaxant effect compared to conventional NO-donors GTN and SNAP (rat aortic rings (RARs) [5]): superiority of NO-TEMPO to both of these NO-donors
tolerance induction in vitro (rat aortic rings (RARs) [2]): does not induce tolerance neither to itself nor to GTN
vaso-relaxant effect on rings before and after exposure to GTN (rat aortic rings (RARs) [2]): significant difference
vaso-relaxant potency, control versus NO-TEMPO-pre-treated RARs (rat aortic rings (RARs) [2]): no significant difference
mean arterial pressure (MAP) following injection ([1]; 1 mg injection through venous catheter, basal MAP 130±15): 60±10 mm Hg
hypotensive effects in vivo compared to GTN and SNAP ([1]; rat, in vivo): superiority of this drug to both GTN and SNAP
tolerance of the hypotensive effect on MAP following successive administration [1]: lack of tolerance development
increase in vascular cGMP ([6]; 1 mg i.v. versus basal): 4-5 fold
cGMP content in aortic tissue ([6]; 1 mg i.v., aorta removed within thirty seconds, basal 46±10): 197±18 pmole/g tissue
tolerance of the vascular cGMP effect ([6]; NO-TEMPO pre-treated rats): lack of tolerance induction
effect on cGMP content of vascular tissue ([6]; control rats): significant increase
effect on vascular cGMP compared to GTN ([6]; control rats): compared well with that of GTN
effect on vascular cGMP compared to GTN ([6]; control rats, listed as NO-TEMPO): superior activity as compared to GTN
tolerance induction in vivo [3]: does not induce tolerance either to itself or to GTN
